# Reference: US20040043403A1, “Process for determining the biological activity of epidermal growth factor receptor tyrosine kinase inhibitors” (priority 2000, published 2004)
# Assays:
# MDA-MB468 = assay: Real time RT-PCR gene expression in MDA-MB468 cells; type: cell-based, human; conditions: MDA-MB468, 3 μM, 24 h; relative to DMSO-treated NCI-H520 calibrator
# Experimental: (§1) 20 million tissue culture cells (about 80% confluent) or 200 million WBCs are incubated for 2 or 24 h in culture medium containing 3 μM of an EGFR tyrosine kinase inhibitor or 0.03% DMSO. Total RNA from cell pellet is isolated using the RNeasy kit (Qiagen). mRNA is isolated using the oligotex mRNA purification kit (Qiagen). The quality of the obtained mRNA is tested by real time RT-PCR using beta-Actin primers (PE Applied Biosystems) with an amplicon size of 300 base pairs (bp). The total RNA is used as a reference to calculate the amount of mRNA-enrichment in the oligotex purified samples. The primers and probes are designed from mRNA sequences within the coding region or in the 3′ untranslated region (Table 2). For real time RT-PCR, RNA concentrations between 1 and 50 ng/reaction are used to obtain signals between 15-35 cycles. For each RNA preparation RT-PCR reactions are performed with and without reverse transcriptase to check for genomic DNA contamination. In all RNA samples tested, genomic DNA contamination is less than 1%. To normalize for variability in the initial concentration and quality of the total RNA, Glyceraldehyde-3-phosphate dehydrogenase (GAPDH) is used as an endogenous reference in all quantification experiments. For RT-PCR a one step, two-enzyme system is chosen. The TaqMan PCR Core Reagent Kit (PE #N808-0228) plus the reverse transcriptase MuLV (PE Biosystems # N808-0018) and RNase inhibitor (Roche Diagnostics # 799 025) are mixed as described in the manufacturers protocol. Triplicate measurements are done for target and for reference reactions. […] RT-PCR reactions are done with RNA concentrations of 2.5, 5, 10, 20, 40 and 80 ng per reaction. […] The ΔCT value is determined by subtracting the average reference CT values from the average target CT values of the three measurements. Relative quantification is performed in triplicates, reference and target, using the RT-PCR protocol described above. […] Expression levels for the three genes, calculated relative to NCI-H520, show big differences between the various cell types (Table 5). […]
# NCI-H520 = assay: Real time RT-PCR gene expression in NCI-H520 cells; type: cell-based, human; conditions: NCI-H520, 3 μM, 24 h; relative to DMSO-treated NCI-H520 calibrator
# Experimental: as §1
# A431 cells = assay: Western blot of clusterin induction in A431 cells; type: cell-based, human
# Experimental: (§2) An EGFR tyrosine kinase inhibitor is dissolved in DMSO to obtain a 10 mM stock solution. The stock solution is further diluted in culture medium to final concentrations of 10 nM to 3 μM. 3.5 million cells/100 mm dish/12 ml culture medium are incubated for 24 h in 5% CO2 at 37° C. The medium is replaced with medium containing the EGFR tyrosine kinase inhibitor or DMSO. Cells are incubated for 4 to 32 h. The frozen pellets are lysed in 500 μl of lysis buffer (50 mM Tris-HCl pH 7.5, 1% Sodium Dodecyl Sulfate (SDS)). To shear genomic DNA, the cell lysates are processed in a FastPrep instrument for 20 sec at a speed rating of 4, using the green […] tubes (Bio101#6040-6010). Protein concentrations are determined according to the PIERCE-method (BCA Protein Assay, Reagent A and B). Protein concentration of lysates is adjusted to 1 μg/μl with lysis buffer. 4 parts of cell lysates are mixed with 1 part of 5 fold concentrated Laemmli buffer, the lysates are stored at -20° C. 40 μl of cell lysate is heated for 3 min to 95° C. and directly loaded on to 10% or 15% SDS-PAGE gels. The gels are run at 130 V for 90 min under standard conditions. The separated proteins are semi-dry blotted on to a PVDF membrane (Immobilon-P, Millipore #IPVH 202 00) for 70 min with 45 mA per blot. Immediately after the transfer the blots are incubated in Blotto A (5% skim milk powder in Tris Buffered Saline (TBS)/0.05% Tween-20) for 1 h at room temperature on a rotating platform. The blots are then washed three times in TBS/0.05% Tween-20. The blots are incubated for 1 h with 0.2 μg/ml of e.g. goat anti-human clusterin (C-18) antibody (Santa Cruz, sc-6419) in Blotto A for 1.5 h at room temperature on a rotating platform. The control blots are incubated with 0.2 μg/ml of mouse anti-human-actin (C-2) antibody (Santa Cruz, sc-8432). The blots are washed three times with TBS/0.05% Tween-20. […]
# NCI-H596 = assay: Western blot of clusterin induction in NCI-H596 cells; type: cell-based, human; conditions: NCI-H596 cells (moderate levels of EGFR), 300 nM, 24 h, vs 0.03% DMSO
# Experimental: as §2, with “blot.” for “blot. Immediately after the transfer the blots are incubated in Blotto A (5% skim milk powder in Tris Buffered Saline (TBS)/0.05% Tween-20) for 1 h at room temperature on a rotating platform. The blots are then washed three times in TBS/0.05% Tween-20. The blots are incubated for 1 h with 0.2 μg/ml of e.g. goat anti-human clusterin (C-18) antibody (Santa Cruz, sc-6419) in Blotto A for 1.5 h at room temperature on a rotating platform. The control blots are incubated with 0.2 μg/ml of mouse anti-human-actin (C-2) antibody (Santa Cruz, sc-8432). The blots are washed three times with TBS/0.05% Tween-20.”
# [1] = test system: Epidermal Growth Factor (EGF)-responsive tumors; conditions: disclosed in WO 97/02266; cited from earlier work
smiles,measurement,setting,value
"C[C@@H](Nc1ncnc2[nH]c(-c3ccc(O)cc3)cc12)c1ccccc1 [COMPOUND A, (R)-6-(4-hydroxy-phenyl)-4-[(1-phenyl-ethyl)-amino]-7H-pyrrolo[2,3-d]pyrimidine]",Relative Clusterin expression,MDA-MB468,32.60 n-fold
same,Relative TRAIL expression,MDA-MB468,2.89 n-fold
same,Relative VAC-beta expression,MDA-MB468,26.60 n-fold
same,Relative Clusterin expression,NCI-H520,0.61 n-fold
same,Relative TRAIL expression,NCI-H520,0.39 n-fold
same,Relative VAC-beta expression,NCI-H520,0.75 n-fold
same,"Clusterin induction, Western blot (FIG. 4)","A431 cells; A431 cells (high levels of EGFR), 300 nM, 24 h, vs 0.03% DMSO",strong clusterin expression signals
same,Concentration at which the 43 kDa clusterin signals reach a maximum (FIG. 2),"A431 cells; A431 cells, 10 nM to 1 μM, 24 h, signals increase with concentration",300 nM
same,Time course of clusterin protein induction (FIG. 3),"A431 cells; A431 cells, 300 nM, 4, 8, 16, 24 and 32 h",continuous increase of clusterin signal from 16 h to 32 h
same,"Clusterin induction, Western blot (FIG. 4)",NCI-H596,no significant clusterin induction
same,Anti-proliferative activity against EGF-responsive tumors,[1],exhibits anti-proliferative activity
